Data on 15 molecules can be found in PMC2593151 (Bioorganic & medicinal chemistry letters, 2008).

Read-outs that look alike come from different tables or passages of the source.

Experiment [1] has as its target T1, LuxR (Aliivibrio fischeri, UniProt P35327). Put plainly: LuxR agonism reporter assay. The class given is cell-based, Vibrio fischeri.
Experiment [2] deals with T2, LasR (Pseudomonas aeruginosa, UniProt P25084). Put plainly: LasR agonism reporter gene assay, E. coli DH5α. Type of experiment: cell-based.
Experiment [3] deals with T3, TraR (Agrobacterium tumefaciens, UniProt P33905). Put plainly: TraR antagonism reporter gene assay. The class given is cell-based.
For experiment [4], the target named is T1, LuxR. As to the kind of experiment: LuxR antagonism reporter assay. Type of experiment: cell-based, Vibrio fischeri.
For experiment [5], the target named is T1, LuxR. Conditions: cited from earlier work.
The target in experiment [6] is T2, LasR. As to conditions: shown previously; cited from earlier work.
For experiment [7], the target named is T3, TraR. Conditions: shown previously; cited from earlier work.
Experiment [8] addresses T2, LasR. As to conditions: read-out: EC50 E. coli LasR; controls; compound alone; ref 5a; cited from earlier work.
In experiment [9] the target is T1, LuxR. Conditions: shown previously; cited from earlier work.

T3 sequence (P33905 whole entry): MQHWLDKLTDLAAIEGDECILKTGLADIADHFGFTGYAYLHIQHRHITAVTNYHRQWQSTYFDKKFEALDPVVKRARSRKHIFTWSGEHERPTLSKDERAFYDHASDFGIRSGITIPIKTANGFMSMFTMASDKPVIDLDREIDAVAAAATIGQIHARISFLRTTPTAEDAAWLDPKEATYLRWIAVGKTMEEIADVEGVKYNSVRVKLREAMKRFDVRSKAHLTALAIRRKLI
T2 sequence (P25084 whole entry): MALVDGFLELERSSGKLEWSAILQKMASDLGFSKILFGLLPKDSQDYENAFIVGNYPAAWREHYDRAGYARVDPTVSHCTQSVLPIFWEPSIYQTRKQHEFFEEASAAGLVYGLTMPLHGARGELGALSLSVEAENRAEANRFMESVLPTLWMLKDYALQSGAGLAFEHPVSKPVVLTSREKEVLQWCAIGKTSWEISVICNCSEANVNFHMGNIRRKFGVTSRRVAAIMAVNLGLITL
T1 sequence (P35327 whole entry): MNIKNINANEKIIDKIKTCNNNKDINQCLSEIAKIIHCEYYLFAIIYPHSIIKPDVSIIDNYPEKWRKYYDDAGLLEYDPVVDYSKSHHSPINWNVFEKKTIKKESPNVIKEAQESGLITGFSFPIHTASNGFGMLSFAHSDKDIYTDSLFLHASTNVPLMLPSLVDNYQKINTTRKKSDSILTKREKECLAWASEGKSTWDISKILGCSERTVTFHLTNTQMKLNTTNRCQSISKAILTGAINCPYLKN

Regarding `O=C(Cc1cccc(C(F)(F)F)c1)N[C@H]1CCOC1=O` [E3, 3-CF3 PHL], the “LuxR activation (in words)” value at LuxR [1] (Library E) was “failed to activate LuxR”.

On to `N#Cc1cccc(CC(=O)N[C@H]2CCOC2=O)c1` [E5, 3-CN PHL], for which a half-maximal response at LuxR [1] (EC50) required 300 nM.

As to `O=C(Cc1ccc(SC(F)(F)F)cc1)N[C@H]1CCOC1=O` [E8, 4-SCF3 PHL], on LasR [2], the EC50 was determined as 3400 nM.

Take `O=C(Cc1cc(C(F)(F)F)cc(C(F)(F)F)c1)N[C@H]1CCOC1=O` [E9, 3,5-CF3 PHL]: on LuxR [1], the response was half-maximal at 370 nM (EC50).

With `O=C(COc1ccc([N+](=O)[O-])cc1)N[C@H]1CCOC1=O` [E24, 4-NO2 POHL], the IC50 at TraR [3] is around 250 nM.

The molecule `O=C(CCc1cccc(Br)c1)N[C@H]1CCOC1=O` [E31, 3-Br PPHL] came in with an IC50 against LuxR [4] of around 470 nM.

In turn, `O=C(CCc1ccc(I)cc1)N[C@H]1CCOC1=O` [E32] showed an EC50 on LasR [2] above 10000 nM.

Regarding `O=C(CCc1cccc(I)c1)N[C@H]1CCOC1=O` [E33, 3-I PPHL], at LuxR [4], the IC50 is around 470 nM.

For `O=C(CCc1ccc(C(F)(F)F)cc1)N[C@H]1CCOC1=O` [E35, 4-CF3 PHHL], the IC50 against TraR [3] was around 250 nM. For the same molecule, the EC50 at LasR [2] is above 10000 nM.

`O=C(CCc1cccc(C(F)(F)F)c1)N[C@H]1CCOC1=O` [E36, 3-CF3 PPHL] yielded an IC50 against LuxR [4] of around 470 nM.

Consider `O=C(CCc1ccc2c(c1)OCO2)N[C@H]1CCOC1=O` [E39], for which the EC50 at LasR [2] is above 10000 nM.

For `O=C(Cc1cccc([N+](=O)[O-])c1)N[C@H]1CCOC1=O` [compound 4, 3-NO2 PHL], the “LuxR activation threshold level” value at LuxR [5] (previously reported LuxR activator) is ~ 100%. Besides, the EC50 on LuxR [5] (read-out: EC50 V. fischeri LuxR, controls, compound alone, ref 5a) was 350 nM.

Turning to `O=C(COc1ccc(OC(F)(F)F)cc1)N[C@H]1CCOC1=O` [compound 6, 4-OCF3 POHL], at LasR [6], the “LasR inhibition (in words)” value was “moderate”. Moreover, on TraR [7], the “TraR inhibition (in words)” value is recorded as “strong”. In addition, the EC50 at LasR [8] was 6300 nM.

Consider `O=C(CCc1ccccc1)NC1CCOC1=O` (centres unmarked) [compound 7, non-substituted PPHL], for which the “LasR inhibition (in words)” value on LasR [6] was “minimal activity”. Further, at LuxR [9], the “LuxR inhibition (in words)” value is given as “minimal activity”. Also, the “TraR inhibition (in words)” value at TraR [7] is “minimal activity”.

For the molecule `O=C(CCc1ccc(Br)cc1)N[C@H]1CCOC1=O` [compound 8, 4-bromo PPHL], the “LasR inhibition (in words)” value on LasR [6] was “potent inhibitor”. The “LuxR inhibition (in words)” value on LuxR [9] is listed as “potent inhibitor”. The “TraR inhibition (in words)” value at TraR [7] is reported as “potent inhibitor”.
